Measured values taken from ChEMBL document CHEMBL3875142, “Quinolino[3,4-b]quinoxalines and pyridazino[4,3-c]quinoline derivatives: Synthesis, inhibition of topoisomerase IIα, G-quadruplex binding and cytotoxic properties” (Eur J Med Chem, 2016).
The source made the active and inactive calls. The rule behind the calls is not given here.

Columns and labels:
[1] = Inhibition of Escherichia coli DNA topoisomerase 4 decatenation activity using kinetoplast DNA as substrate after 60 mins by agarose gel electrophoresis
[2] = Inhibition of thiazole orange binding to duplex DNA (unknown origin) by fluorescence assay
[3] = Cytotoxicity against human HeLa cells after 72 hrs by MTT assay; type: functional, cell-based
[4] = Binding affinity to 5'-dabcyl/3'-fluorescein labeled pu27 G-quadruplex DNA (unknown origin) assessed as change in melting temperature at 10 uM by fluorescence assay
[5] = Inhibition of thiazole orange binding to cKit G-quadruplex DNA (unknown origin) by fluorescence assay
[6] = Inhibition of thiazole orange binding to pu27 G-quadruplex DNA (unknown origin) by fluorescence assay
[7] = Binding affinity to 5'-dabcyl/3'-fluorescein labeled duplex DNA (unknown origin) assessed as change in melting temperature at 10 uM by fluorescence assay
[8] = target: DNA topoisomerase 2-alpha (Homo sapiens, UniProt P11388); assay: Inhibition of human DNA topoisomerase 2alpha-mediated decatenation of kinetoplast DNA after 60 mins by agarose gel electrophoresis
Sequence of DNA topoisomerase 2-alpha (P11388 whole entry): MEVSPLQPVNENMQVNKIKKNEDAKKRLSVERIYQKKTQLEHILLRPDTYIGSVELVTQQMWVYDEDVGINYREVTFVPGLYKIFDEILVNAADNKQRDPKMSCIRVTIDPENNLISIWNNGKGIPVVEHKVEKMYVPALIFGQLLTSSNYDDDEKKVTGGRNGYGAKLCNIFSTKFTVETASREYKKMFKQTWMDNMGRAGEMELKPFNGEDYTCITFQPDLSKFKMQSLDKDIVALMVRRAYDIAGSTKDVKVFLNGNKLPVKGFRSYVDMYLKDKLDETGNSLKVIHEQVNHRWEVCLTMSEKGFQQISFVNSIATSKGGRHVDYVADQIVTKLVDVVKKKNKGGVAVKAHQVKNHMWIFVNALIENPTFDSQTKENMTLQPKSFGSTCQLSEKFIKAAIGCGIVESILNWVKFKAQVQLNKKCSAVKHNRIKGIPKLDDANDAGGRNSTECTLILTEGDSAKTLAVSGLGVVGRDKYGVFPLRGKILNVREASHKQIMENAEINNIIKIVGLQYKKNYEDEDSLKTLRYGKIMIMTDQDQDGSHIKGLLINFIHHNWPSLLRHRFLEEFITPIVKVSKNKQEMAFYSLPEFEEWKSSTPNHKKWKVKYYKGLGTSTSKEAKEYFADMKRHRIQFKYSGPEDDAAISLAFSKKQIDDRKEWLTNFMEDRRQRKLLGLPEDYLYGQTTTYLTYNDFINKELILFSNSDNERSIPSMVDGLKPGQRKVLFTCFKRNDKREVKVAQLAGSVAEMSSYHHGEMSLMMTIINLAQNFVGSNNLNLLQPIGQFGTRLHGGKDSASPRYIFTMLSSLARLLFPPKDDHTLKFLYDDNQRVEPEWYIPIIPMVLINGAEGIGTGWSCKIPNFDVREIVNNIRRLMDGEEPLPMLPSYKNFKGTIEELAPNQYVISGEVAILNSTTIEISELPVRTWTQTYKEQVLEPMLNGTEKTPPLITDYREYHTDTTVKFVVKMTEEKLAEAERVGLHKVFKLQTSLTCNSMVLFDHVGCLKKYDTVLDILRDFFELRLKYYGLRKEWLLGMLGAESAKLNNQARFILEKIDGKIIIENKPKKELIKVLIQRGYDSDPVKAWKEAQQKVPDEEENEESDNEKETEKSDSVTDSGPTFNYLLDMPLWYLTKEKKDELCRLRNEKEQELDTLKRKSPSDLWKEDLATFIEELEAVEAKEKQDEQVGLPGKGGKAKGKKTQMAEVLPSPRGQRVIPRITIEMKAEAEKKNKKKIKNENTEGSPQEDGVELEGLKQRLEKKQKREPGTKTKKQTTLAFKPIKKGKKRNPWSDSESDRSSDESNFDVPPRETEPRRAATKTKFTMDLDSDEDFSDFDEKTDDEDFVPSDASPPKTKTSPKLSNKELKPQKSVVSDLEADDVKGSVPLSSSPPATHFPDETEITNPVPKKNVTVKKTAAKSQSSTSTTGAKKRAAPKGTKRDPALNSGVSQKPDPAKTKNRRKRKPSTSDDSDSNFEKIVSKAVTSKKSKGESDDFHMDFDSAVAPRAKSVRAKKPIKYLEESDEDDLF

[9] = Binding affinity to 5'-dabcyl/3'-fluorescein labeled cKit G-quadruplex DNA (unknown origin) assessed as change in melting temperature at 10 uM by fluorescence assay
[10] = Cytotoxicity against human MCF7 cells after 72 hrs by MTT assay; type: functional, cell-based; settings: MCF7, 72 h
Homo sapiens = species: Homo sapiens; assay: Binding affinity to 5'-dabcyl/3'-fluorescein labeled human telomeric sequence G-quadruplex DNA assessed as change in melting temperature at 10 uM by fluorescence assay
Escherichia coli = assay: Induction of Escherichia coli pBR322 DNA unwinding at 0.1 to 10 uM after 1 hr by agarose gel electrophoresis
[11] = Inhibition of thiazole orange binding to human telomeric sequence G-quadruplex DNA by fluorescence assay

IC50 [1] [µM] | EC50 [2] [µM] | ΔTm [4] [°C] | EC50 [5] [µM] | EC50 [6] [µM] | ΔTm [7] [°C] | IC50 [8] [µM] | ΔTm [9] [°C] | ΔTm (Homo sapiens) [°C] | Activity (Escherichia coli) | EC50 [11] [µM] | SMILES | IC50 [3] [µM] | IC50 [10] [µM]
> 100 | 10.9 | 5.5 | 3.57 | 1.32 | 0.4 | > 100 | 7.8 | 4.7 | – | – | CN(C)CCCn1c(=O)c2nc3ccccc3nc2c2ccccc21 | 2.04 | 5.99
– | – | 3.8 | – | – | 1.1 | > 100 | 5.8 | 1.1 | – | – | CCN(CC)CCNc1nc2ccccc2c2nc3ccccc3nc12 | 6.87 | –
– | – | 2.1 | – | – | 0.1 | > 100 | 1.8 | 1.7 | – | – | Cc1cc2c(=O)n(CCCN(C)C)c3ccccc3c2nn1 | 49.1 | –
– | – | 4.1 | – | – | 0.5 | 23.8 | 3.8 | 1.4 | – | – | CN(C)CCCOc1nc2ccccc2c2nc3ccccc3nc12 | 6.1 | –
> 100 | – | 5.9 | – | – | 2.2 | 11.3 | 6.9 | 6.1 | – | – | CN(C)CCCNc1nc2ccccc2c2nc3ccccc3nc12 | 5.37 | 2.96
– | – | 6.4 | – | – | 0.9 | 34.3 | 7.4 | 4.8 | – | – | CN(C)CCCCn1c(=O)c2nc3ccccc3nc2c2ccccc21 | 11.1 | –
> 100 | – | 8.8 | – | – | 4.2 | 17.8 | 11.2 | 10.6 | – | – | CN(C)CCSc1nc2ccccc2c2nc3ccccc3nc12 | 6.03 | 2.41
63.4 | – | – | – | – | – | – | – | – | – | – | CO[C@@H]1[C@@H](OC(N)=O)[C@@H](O)[C@H](Oc2ccc3c(O)c(NC(=O)c4ccc(O)c(CC=C(C)C)c4)c(=O)oc3c2C)OC1(C)C [NOVOBIOCIN] | – | –
– | – | – | – | – | – | – | – | – | – | – | O=C1c2ccccc2C(=O)c2c(NCCNCCO)ccc(NCCNCCO)c21 [AMETANTRONE] | 0.9 | 0.51
> 100 | – | 0 | – | – | 0 | > 100 | 0 | 0.8 | – | – | O=c1c2nc3ccccc3nc2c2ccccc2n1CCN1CCOCC1 | > 100 | > 100
> 100 | – | 0 | – | – | 0 | > 100 | 0 | 0 | – | – | O=c1[nH]c2ccccc2c2nc3ccccc3nc12 | 19.8 | 32.7
– | – | 1.4 | – | – | 1.8 | 19.4 | 2 | 0.4 | – | – | c1ccc2nc3c(nc2c1)c(NCCN1CCCCC1)nc1ccccc13 | 10.3 | –
> 100 | – | 0 | – | – | 0 | 100 | 0 | 0 | – | – | c1ccc2nc3c(nc2c1)c(NCCN1CCOCC1)nc1ccccc13 | > 100 | > 100
– | – | 0.8 | – | – | 0.1 | > 100 | 2.5 | 1 | – | – | CCN(CC)CCOc1nc2ccccc2c2nc3ccccc3nc12 | 25.4 | –
– | – | 0.6 | – | – | 0.2 | > 100 | 2.7 | 1.2 | – | – | Cc1cc2c(=O)n(CCN(C)C)c3ccccc3c2nn1 | 40.9 | –
– | – | – | – | – | – | 3 | – | – | Active | – | COc1cccc2c1C(=O)c1c(O)c3c(c(O)c1C2=O)C[C@@](O)(C(=O)CO)C[C@@H]3O[C@H]1C[C@H](N)[C@H](O)[C@H](C)O1 [DOXORUBICIN] | – | –
> 100 | – | 5.9 | – | – | 0 | > 100 | 1.5 | 3.1 | – | – | CN(CCCCCNc1nc2ccccc2c2nc3ccccc3nc12)Cc1ccccc1 | > 100 | > 100
> 100 | 1.26 | 9.4 | 0.83 | 0.57 | 4.2 | 5.14 | 11.6 | 9.8 | – | 4.48 | CN(C)CCCCNc1nc2ccccc2c2nc3ccccc3nc12 | 2.32 | 1.6
– | – | 5.9 | – | – | 1.5 | 13.9 | 4.7 | 2 | – | – | CCN(CC)CCCNc1nc2ccccc2c2nc3ccccc3nc12 | 6.53 | –
– | – | 3.5 | – | – | 0.4 | 87.6 | 4.5 | 2.3 | – | – | CCN(CC)CCn1c(=O)c2nc3ccccc3nc2c2ccccc21 | 8.52 | –
– | – | 4.1 | – | – | 0.3 | 35.6 | 4.8 | 2.7 | – | – | CN(C)CCn1c(=O)c2nc3ccccc3nc2c2ccccc21 | 7.18 | –
> 100 | – | 4 | – | – | 4.3 | 19.5 | 9.7 | 8.2 | – | – | CN(C)CCNc1nc2ccccc2c2nc3ccccc3nc12 | 2.98 | 2.34
